Measured values as given in patent publication US10919941B2, “Functional lipid constructs” (KODE BIOTECH LIMITED, priority 2007, dated 2021).
No end group written: not given here.

Tests used:
[1] = tested on: Miltenberger Antibody Positive Panel; test: Reactivity of modified RBCs against the Miltenberger Antibody Positive Panel; assay type: cell-based, human; design: key to score vs panel 15 TAP2 / score vs panel 4 T7202 / score vs panel 8 T5896 / score vs panel 2 T217 / score vs panel 3 T165 / score vs panel 14 TAP1 / score vs panel 10 Mia / score vs panel 11 Mur / score vs panel 12 Gam / score vs panel 6 T6025 / score vs panel 7 T8445 / score vs panel 9 MIII / score vs panel 13 BoxH / reactivity with Panel Serum #7 (T8445) / agglutination score, Panel Serum #7 (T8445): 0 or ‘−’ no agglutination; 0 or ‘−’ no agglutination; 1+ or 3=very weak agglutination; 1+ or 3=very weak agglutination; 2+ or 5=weak agglutination; 2+ or 5=weak agglutination; 3+ or 8=moderate strong agglutination; 3+ or 8=moderate strong agglutination; 4+ or 10/12=strong agglutination; 4+ or 10/12=strong agglutination; 4+ or 10/12=strong agglutination
[2] = tested on: natural Mi III antibody reactive human serums; test: Positive serum reactivity of modified RBCs in the field; assay type: cell-based; design: key: 0 or ‘−’ no agglutination; 0 or ‘−’ no agglutination; 1+ or 3=very weak agglutination; 1+ or 3=very weak agglutination; 2+ or 5=weak agglutination; 2+ or 5=weak agglutination; 3+ or 8=moderate strong agglutination; 3+ or 8=moderate strong agglutination; 4+ or 10/12=strong agglutination; 4+ or 10/12=strong agglutination; 4+ or 10/12=strong agglutination; conditions: 22 at 50, 17 and 24 at 200 μg/ml; 3 h RT then 18 h 4° C.
Experimental: The suspensions are either: • 1. incubated for 2 hours at 37° C. before being washed and suspended in a cell medium for serological analysis at a concentration of 0.8 to 3% (Method 1); or • 2. incubated for 3 to 4 hours at room temperature (circa 25° C.) followed by 18 hours at 4° C. before being washed and suspended in a cell medium for serological analysis at a concentration of 0.8 to 3% (Method 2).
Serological reactions are graded or scored by either of two established systems (0 or ‘−’ no agglutination, 1+ or 3=very weak agglutination, 2+ or 5=weak agglutination, 3+ or 8=moderate strong agglutination, 4+ or 10/12=strong agglutination)

M22: DOPE peptide-lipid construct: MUTK peptide SQTNDKHKRD, leader c, spacer CMG(2) (SQTNDKHKRDC; also: DOPE peptide-lipid construct via leader Cys, spacer CMG(2))
sensitivity and specificity towards a human polyclonal antibody panel compared with sequence 1 ([1]; MUT peptides, prior art sequence 1): superior sensitivity and specificity | score vs panel 2 T217 ([1]; Table 8, construct 200 μg/ml): 0 | score vs panel 3 T165 ([1]; Table 8, construct 200 μg/ml): 0 | score vs panel 4 T7202 ([1]; Table 8, construct 200 μg/ml): 0 | score vs panel 6 T6025 ([1]; Table 8, construct 200 μg/ml): 10 | score vs panel 7 T8445 ([1]; Table 8, construct 200 μg/ml): 0 | score vs panel 8 T5896 ([1]; Table 8, construct 200 μg/ml): 0 | score vs panel 9 MIII ([1]; Table 8, construct 200 μg/ml): 0 | score vs panel 10 Mia ([1]; Table 8, construct 200 μg/ml): 0 | score vs panel 11 Mur ([1]; Table 8, construct 200 μg/ml): 0 | score vs panel 12 Gam ([1]; Table 8, construct 200 μg/ml): 3 | score vs panel 15 TAP2 ([1]; Table 8, construct 200 μg/ml): 0 | score vs Mi III reactive serum 488-6 [2]: 10 | score vs Mi III reactive serum 589-6 [2]: 0 | score vs Mi III reactive serum 621-3 [2]: 5 | score vs Mi III reactive serum 912485657-9 [2]: 0 | score vs Mi III reactive serum 914146821-8 [2]: 0 | score vs Mi III reactive serum 922390844-5 [2]: 0 | score vs Mi III reactive serum 926190919-0 [2]: 0 | score vs Mi III reactive serum 926555294-1 [2]: 0 | score vs Mi III reactive serum 927175131-4 [2]: 0 | score vs Mi III reactive serum 927299700-1 [2]: 0 | score vs Mi III reactive serum 927516053-2 [2]: 0 | score vs Mi III reactive serum 927619701-8 [2]: 0 | score vs Mi III reactive serum 932360876-4 [2]: 0 | score vs Mi III reactive serum 932467774-5 [2]: 0 | score vs Mi III reactive serum 932809044-1 [2]: 0 | score vs Mi III reactive serum 942223755-1 [2]: 0 | score vs Mi III reactive serum 942404708-4 (row interpreted Mur) [2]: 0 | score vs Mi III reactive serum 942404708-4 (row interpreted other) [2]: 0 | score vs Mi III reactive serum 942421413-0 [2]: 0 | score vs Mi III reactive serum 942423002-4 [2]: 0 | score vs Mi III reactive serum 942433813-3 [2]: 0 | score vs Mi III reactive serum 942433855-3 [2]: 0 | score vs Mi III reactive serum 942442720-2 [2]: 0 | score vs Mi III reactive serum 942448627-8 [2]: 0 | score vs Mi III reactive serum 942753165-4 [2]: 0 | score vs Mi III reactive serum 942762589-1 [2]: 0 | score vs Mi III reactive serum 9322338631 [2]: 0 | score vs Mi III reactive serum 9325490091 [2]: 5 | score vs Mi III reactive serum 9327986660 [2]: 8 | score vs Mi III reactive serum 9328118428 [2]: 0 | score vs Mi III reactive serum 9328154853 [2]: 0 | score vs Mi III reactive serum 9328791834 [2]: 5 | score vs Mi III reactive serum 9424248012 [2]: 0 | score vs Mi III reactive serum 9424292604 [2]: 0 | score vs Mi III reactive serum 9424396133 [2]: 0 | score vs Mi III reactive serum 9425256505 [2]: 0 | score vs Mi III reactive serum 9427455417 [2]: 0 | score vs Mi III reactive serum 9427613497 [2]: 0 | score vs Mi III reactive serum 9427615156 [2]: 0 | score vs Mi III reactive serum S-3 [2]: 0
